In one assay the test system is KRAS-mutant PDAC lines. Kind of assay: Drug response and viability assay (AlamarBlue), PDAC lines. Particulars: various KRAS-mutant PDAC lines; 5 and 7 days. The assay is classed as cell-based, human. On the procedure: Cells were seeded at 1500-2500 cells per well in triplicates, in 96 well format. Next day, appropriate inhibitor was added in serial dilution from 1.00×102 μM or indicated single doses. Vehicle (DMSO) was added to match volume of inhibitor used for highest concentration. […] Fluorescence at 585 nm (excitation 555 nm) was measured by SpectraMax i3 Microplate Reader. Raw values were normalized to vehicle, analyzed and graphed using GraphPad Prism v7/8 software.
For orientation: The colour change of resazurin is a common sign of viable cells or microbes.

The next assay relates to p-MEK, p-ERK, and p-RSK. In words: Immunoblots of MAPK pathway markers in human cell lines. The format is cell-based. The method, then:
(§1) Standard immunoblotting procedure was followed. Cells were washed twice with ice-cold 1×PBS and lysed with ice-cold triton-X lysis buffer (25 mM Tris, pH 7.4, 150 mM NaCl, 5 mM EDTA, 1% Triton-X) containing 1× protease (10 μg mL-1 leupeptin, 700 ng mL-1 pepstatin, 170 ng mL-1 aprotinin, 1 mM PMSF) and phosphatase (10 mM NaF, 1 mM Na3VO4, 1 mM Na4P2O^7, 5 mM Na b-glycerophosphate) inhibitors. Lysates were quantified by Bradford assay (Thermo Scientific), normalized for concentration, and reduced and denatured with 6×SDS sample buffer followed by boiling for 5 minutes. 20-40 μg of protein per sample was resolved by SDS-PAGE, blotted on PVDF membrane and probed with primary antibodies (Cell Signaling Technologies: p-ERK1/2 (#4370), p-MEK1/2 (#9154), ERK1/2 (#4695), MEK1/2 (#8727), p-p105 (#4806), NFS2KB1 p105/p50 (#3035), p-IRAK4 (#11927), IRAK4 (#4363), ubiquitin (#43124), anti-HA (#3724), p-p90RSK (#11989), RSK1/2/3 (#9355), p-TPL2 (#4491), PARP (#9532), p-B-RAF S445 (#2696), BRAF (#9433S). Santa Cruz Biotechnology: GAPDH (#sc-32233), p-p65 S536 (#sc101752). Thermo Fisher Scientific: p-55 TPL2 (#PA5-36635). EMD Millipore: IRAK4 (#07-418). R&D systems: TPL2/MAP3K8 (#MAB4586). Novus Biologicals: anti-AU1 (#NB600-453). Abcam: p-p65 S276 (#ab194726)). Membranes were incubated with appropriate HRP-conjugated secondary antibodies (anti-mouse or anti-rabbit, (1:5000 dilution), Jackson Laboratory) and imaged using chemiluminescent substrate. Additional steps for immunoprecipitation include incubation of soluble fraction lysate with anti-HA magnetic beads (Thermo Scientific cat #88837) overnight at 4° C., washing, and elution using 1×SDS sample buffer and boiling as mentioned in manufacturer's protocol.
On the technique in general: Immunoblotting shows a protein as a band on a membrane.

In the next assay the test system is MAPK activity. Kind of assay: Immunoblots of MAPK activity in murine PDAC lines KP2 and KI. The format is cell-based. Particulars: 24 hours, serum-free. The method, then: as §1, with “S536” left out, “S276” left out, “Membranes were incubated with appropriate HRP-conjugated secondary antibodies (anti-mouse or anti-rabbit, (1:5000 dilution), Jackson Laboratory) and imaged using chemiluminescent substrate. Additional steps for immunoprecipitation include incubation of soluble fraction lysate with anti-HA magnetic beads (Thermo Scientific cat #88837) overnight at 4° C., washing, and elution using 1×SDS sample buffer and boiling as mentioned in manufacturer's protocol.” left out

Assay [1] relates to p-FAK, p-ERK, total FAK, and FoxM1. Kind of assay: Reverse-phase protein array (RPPA) on HPNE-KRAS^G12D cells overexpressing IRAK4. The assay is classed as cell-based, human. On the procedure: All lysates were prepared according to sample preparation guidelines provided by MD Anderson Cancer Center (MDACC). HPNE-KRAS^G12D were infected with retroviral particles containing AU1-tagged IRAK4 WT or vector control in presence of 8 μg mL-1 polybrene, selected with blasticidin (10 μg mL-1) and RPPA was performed. For drug treatment, IRAK4 overexpressing cells were treated with AS2444697 2 μM or vehicle (DMSO) for 24 hours. For evaluation of TPL2 WT and E188K, 293T cells were transfected in duplicates with Vector (pbabe-puro), TPL2 WT or TPL2 E188K along with equal amount of polyethylenimine. Cells were harvested 48 hrs post-transfection and lysates were prepared and sent for RPPA. For both RPPA experiments, lysates were quantified by Bradford assay (Thermo Scientific), equalized for concentration, and denatured and reduced by adding 4×SDS sample buffer (without bromophenol blue) and boiling for 5 minutes.

Assay [2] relates to HPNE-KRAS^G12D cells, HEKT/tH-KRAS^G12V cells, conventional PDAC lines, and PDCLs. In words: Anchorage independent soft agar growth assay, human KRAS-mutant lines. The assay is classed as cell-based. On the procedure: Cells were seeded at 5000-15000 cells in 0.3% noble agar-DMEM suspension per well, in triplicate, in 24 well plate. For drug treatment, compound was added to cell suspension at 1× concentration. Seeded cells were fed with fresh 0.6% agar-DMEM mix once every 7-12 days. […] After 3-6 weeks, colonies were counted under microscope and imaged. Colony count was normalized to control and graphed in GraphPad Prism v7/8.

The results in this text go back to patent US12173039B1, “TPL2 inhibiting agents, uses thereof, and detection of TPL2” (Washington University, priority 2021, dated 2024).

Regarding `CC[C@@H]1[C@H](F)C(=O)N[C@@H]1COc1nccc2cc(C(N)=O)c(OC)cc12` [PF06650833, 1-(((2S,3S,4S)-3-ethyl-4-fluoro-5-oxopyrrolidin-2-yl)methoxy)-7-methoxyisoquinoline-6-carboxamide], the viability result with KRAS-mutant PDAC lines was “dose-dependently reduced”. Besides, in the assay with p-MEK, p-ERK, and p-RSK (293T cells transfected with oncogenic BRAF^V600E, 24 hours), the “p-MEK and p-ERK” value is “neither TPL2i nor IRAK4i suppressed”. Moreover, the “p-MEK and p-ERK / MAPK activity” value in the assay with p-MEK, p-ERK, and p-RSK (BxPc-3 PDAC line (BRAF mutation, WT KRAS)) was “neither TPL2i nor IRAK4i suppressed”. Besides, the “KRAS mutant-upregulated p-MEK, p-ERK, and p-RSK levels” value with p-MEK, p-ERK, and p-RSK (HPNE-KRAS^G12D and 293T-KRAS^G12V, 24 hours, serum-free) is “dose-dependently blocked”. Also, the “p-MEK and p-ERK levels enhanced by ectopic TPL2” value with p-MEK, p-ERK, and p-RSK (Pa01C and HPAC cells overexpressing TPL2, serum-free) is “blocked”. In addition, the “MAPK activity (immunoblot)” value is “dose-dependently suppressed” in the assay with p-MEK, p-ERK, and p-RSK (Pa01C, Pa02C, Pa03C and HPAC, 16 hours); “dose-dependently suppressed” with MAPK activity. For the same compound, the “MAPK target proteins (RPPA)” value in assay [1] is listed as “suppressed”. Besides, the “IRAK4-induced increase in p-FAK, p-ERK, total FAK, and FoxM1 (RPPA)” value in assay [1] (24 hours) is given as “reversed”. For the same compound, the AI growth result in assay [2] (HPNE-KRAS^G12D cells) was “crippled the AI growth”. In addition, in assay [2] (HPNE-KRAS^G12D cells ectopically expressing IRAK4), the “AI growth enhanced by IRAK4 overexpression” value is on record as “reversed the effect of IRAK4 overexpression”.
